Like-named read-outs stand apart in the source and are kept apart here. Ends that are not written are not given here.
Assays:
RIN5fm cells = conditions: LL-37 alone, 7 days aged, 1 assay, n=3
[1] = test system: cytotoxic IAPP assemblies on RIN5fm cells
[2] = molecular target: T1, IAPP (Fluos-IAPP, mostly monomers) (Homo sapiens, UniProt P10997); assay: Fluorescence spectroscopic titration of Fluos-IAPP; assay type: binding; conditions: for Kd: SD
T1 construct: made in house; host or cells: chemical synthesis
T1 sequence (P10997 34-70 limits assumed): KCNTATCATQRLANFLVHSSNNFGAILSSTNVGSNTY
Protocol: Fluorescence spectros copic titrations
Fluorescence spectrosco pic titration studies w ere performed with a JASC O FP-6500 fluorescence spectrophotometer using a previously described experimental protocol.[1, 5, 7] Briefly, excitation was at 492 nm and emission spectra were recorded between 500 and 600 nm. The app arent (app.) Kds of the interactions of IAPP with LL-37 and its segments LL-37(1- 14) and LL-37(15- 37) were quantified by titrating synthetic N α-amino-terminal fluorescein labeled IAPP (5 nM) with various amounts of each of the peptides . For all exp eri ments , freshly made stocks of peptides and their fluorescently lab eled an alogs in HF IP wer e used. Measurements w er e performed in 10 mM sodium phosphate buffer (pH 7.4) containing 1% HFIP within 2-5 min following solution preparation at room temperature. Of note, under these conditions freshly made Fluos-IAPP (5 nM) solutions consist mostly of monomers.[1] App. Kds were calculated using 1/1 binding models as previously described and ar e means (± SD) of three binding curves.[1, 3, 5, 7]
Cross-linking, NuPAGE, and Western Blot analysis
Cross-linking studies were preformed using a previously developed assay system.[5] Briefly, solutions of IAPP alone (30 µM) and its mixtures with LL-37 or scrLL- 37 at the indicated molar ratios (IAPP/LL-37 at 1/1 or 1/0.1) wer e p repared in aqueous sodium phosphate buffer, pH 7.4,

[3] = molecular target: T2, IAPP monomers and fibrils (Homo sapiens, UniProt P10997); assay: Dot blot binding to IAPP monomers and fibrils; conditions: IAPP monomers and fibrils (40 µg) on nitrocellulose, FAM-LL-37 200 nM, overnight 10 °C; representative of 4 assays
T2 construct: The 37‐residue IAPP is secreted from the β‐cells together with insulin; made in house; host or cells: chemical synthesis (Fmoc solid-phase synthesis on Rink resin)
T2 sequence (P10997 34-70 limits assumed): T1 sequence (P10997 34-70 limits assumed)
Protocol: Solutions were cross-linked using 25% aqueous glutaraldehyde (Sigma-Aldrich) an d 10% aqueous trichloro acetic acid (TCA ) was […] buffer, boiled for 5 min, and subjected to NuPAGE electrophoresis in 4- 12% Bis-Tris gels with MES running buffer (Invitrogen). The s ame volume of each solution (same IAPP amount) was loaded in all l anes. Peptid es were blotted using a X Cell II Blot Module blotting system (Invitrogen ). IAPP or […] using a polyclonal rabbit anti-IAPP antibody (Peninsula) or a monoclonal mouse anti-LL- 37 antibody (Santa Cruz Biotechnology), resp ectively in combination with suitable peroxidase (POD)-coupled s econdary antibodies (Pierce & Am […] Super Signal West Dura Extended Duration Substrate (Pierce). Of note, previous studies provided evidence for the […] of th e cross-linking assay; in addition, no new bands were obs […]-37 (1/1) mixtures (data not shown).[5] Dot blot analysis IAPP monomers or IAPP fibrils (fIAPP) containin g solutions (different am ounts up to 40 μg) were spotted onto a nitrocellulose membrane. […] In addition, to control for t he interference of fibril autofluorescence, a membrane containing spotted f IA P P which had been incubated in buffer alone w/o FAM-LL-37 was included in each assay; in general, fIAPP autofluorescence contribute d up to 25% of the total amount of fluorescence observed in fIAPP bound toFAM -LL- 37. […]

[4] = Fluos-IAPP 5 nM, 10 mM sodium phosphate pH 7.4, 1% HFIP, room temperature, 1/1 binding model, mean (±SD) of three binding curves, read-out: app. Kd of interaction with Fluos-IAPP

CC[C@H](C)[C@H](NC(=O)[C@H](CCCCN)NC(=O)[C@H](CCC(=O)O)NC(=O)[C@H](CCCCN)NC(=O)[C@H](CO)NC(=O)[C@H](CCCCN)NC(=O)[C@H](CCCNC(=N)N)NC(=O)[C@H](Cc1ccccc1)NC(=O)[C@H](Cc1ccccc1)NC(=O)[C@H](CC(=O)O)NC(=O)CNC(=O)[C@H](CC(C)C)NC(=O)[C@@H](N)CC(C)C)C(=O)NCC(=O)N[C@@H](CCCCN)C(=O)N[C@@H](CCC(=O)O)C(=O)N[C@@H](Cc1ccccc1)C(=O)N[C@@H](CCCCN)C(=O)N[C@@H](CCCNC(=N)N)C(=O)N[C@H](C(=O)N[C@H](C(=O)N[C@@H](CCC(N)=O)C(=O)N[C@@H](CCCNC(=N)N)C(=O)N[C@H](C(=O)N[C@@H](CCCCN)C(=O)N[C@@H](CC(=O)O)C(=O)N[C@@H](Cc1ccccc1)C(=O)N[C@@H](CC(C)C)C(=O)N[C@@H](CCCNC(=N)N)C(=O)N[C@@H](CC(N)=O)C(=O)N[C@@H](CC(C)C)C(=O)N[C@H](C(=O)N1CCC[C@H]1C(=O)N[C@@H](CCCNC(=N)N)C(=O)N[C@H](C(=O)N[C@@H](CCC(=O)O)C(=O)N[C@@H](CO)C(=O)O)[C@@H](C)O)C(C)C)[C@@H](C)CC)C(C)C)[C@@H](C)CC [LL-37]
cytotoxicity of peptide alone (MTT reduction) (RIN5fm cells): not cytotoxic
effect on formation of cytotoxic IAPP assemblies (MTT reduction) [1]: effectively suppressed
IC50 ([1]; rat, SD): 0.017 µM
increase in fluorescence emission of Fluos-IAPP ([2]; Fluos-IAPP 5 nM with 100-fold molar excess of LL-37, pH 7.4): 322%
Kd [2]: 0.0881 µM

FAM-LL-37: N-terminal fluorescein-labeled LL-37 with 6-aminohexanoic acid spacer, from Anaspec
binding to IAPP fibrils and monomers (dot blot) [3]: bound both IAPP fibrils and monomers

KEFKRIVQRIKDFLRNLVPRTES [LL-37(15-37)]
Kd [2, 4]: 0.0319 µM

LLGDFFRKSKEKIG [LL-37(1-14)]
Kd [2, 4]: 2.54 µM
